From US6358885B1, “Substituted phenylheterocyclic herbicides” (Mississippi State University, priority 1992, dated 2002)

Legend:
blackgrass = assay: Test C preemergence/postemergence greenhouse plant response rating 0 to 100; format: in vivo, Alopecurus myosuroides; details: POSTEMERGENCE
Summary of the method: (§1)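 Compounds in non-phytotoxic solvent applied preemergence to sandy loam one day after planting, postemergence at the 1–4 leaf stage, or to ~2.5 cm floodwater over silt loam.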

corn = assay: as above; format: in vivo, Zea mays; details: POSTEMERGENCE
Summary of the method: as §1

umbrella sedge = assay: Test C flood test plant response rating 0 to 100; format: in vivo, Cyperus difformis
Summary of the method: as §1

pigweed = assay: Test C preemergence/postemergence greenhouse plant response rating 0 to 100; format: in vivo, Amaranthusretroflexus; details: POSTEMERGENCE
Summary of the method: as §1

wild buckwheat = assay: Test B preemergence/postemergence greenhouse plant response rating 0 to 10; format: in vivo, Polygonum convolvulus; details: 0 to 10 scale
Summary of the method: (§2)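 Test chemicals, dissolved in a non-phytotoxic solvent, were applied to soil at planting and, at the same time, over foliage of seedlings at the one to four leaf stage.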

cocklebur = assay: as above; format: in vivo, Xanthium pensylvanicum; details: 0 to 10 scale
Summary of the method: as §2

rice [1] = assay: Test C flood test plant response rating 0 to 100; format: in vivo, Oryza sativa
Summary of the method: as §1

bedstraw = assay: Test C preemergence/postemergence greenhouse plant response rating 0 to 100; format: in vivo, Galium aparine; details: POSTEMERGENCE
Summary of the method: as §1

giant foxtail = assay: as above; format: in vivo, Setaria faberii; details: POSTEMERGENCE
Summary of the method: as §1

duck salad = assay: Test C flood test plant response rating 0 to 100; format: in vivo, Heteranthera limosa
Summary of the method: as §1

cotton = assay: Test C preemergence/postemergence greenhouse plant response rating 0 to 100; format: in vivo, Gossypium hirsutum; details: POSTEMERGENCE
Summary of the method: as §1

velvetleaf = assay: as above; format: in vivo, Abutilon theophrasti; details: POSTEMERGENCE
Summary of the method: as §1

sugar beet = assay: as above; format: in vivo, Beta vulgaris; details: POSTEMERGENCE
Summary of the method: as §1

rice [2] = assay: Test B preemergence/postemergence greenhouse plant response rating 0 to 10; format: in vivo, Oryza sativa; details: 0 to 10 scale
Summary of the method: as §2

soybean = assay: as above; format: in vivo, Glycine max; details: 0 to 10 scale
Summary of the method: as §2

purple nutsedge = assay: as above; format: in vivo, Cyperus rotundus; details: Rate 50 g/ha, 0 to 10 scale
Summary of the method: as §2

chickweed = assay: Test C preemergence/postemergence greenhouse plant response rating 0 to 100; format: in vivo, Stellaria media; details: POSTEMERGENCE
Summary of the method: as §1

[3] = POSTEMERGENCE section, flood test, Rate 1 g/ha
[4] = POSTEMERGENCE section, flood test, Rate 4 g/ha
[5] = Rate 16 g/ha, under POSTEMERGENCE head (flood test species)
[6] = flood test species listed under POSTEMERGENCE, 62 g/ha, 0 to 100 scale

## C#CCN1C(=O)COc2cc(F)c(-c3nn4c(c3Cl)CCCC4)cc21 [Compound 34]
blackgrass; 62 g/ha, 0 to 100 scale
  Plant response rating, Blackgrass: 60
blackgrass; Rate 1 g/ha
  Plant response rating (0 to 100), Blackgrass: 20
blackgrass; Rate 4 g/ha
  Plant response rating (0 to 100), Blackgrass: 30
blackgrass; Rate 16 g/ha
  Plant response rating (0 to 100), Blackgrass: 50
corn; 62 g/ha, 0 to 100 scale
  Plant response rating, Corn: 50
corn; Rate 1 g/ha
  Plant response rating (0 to 100), Corn: 20
corn; Rate 4 g/ha
  Plant response rating (0 to 100), Corn: 30
corn; Rate 16 g/ha
  Plant response rating (0 to 100), Corn: 40
Umbrella sedge; [3]
  Plant response rating (0 to 100), Umbrella sedge: 0
Umbrella sedge; [4]
  Plant response rating (0 to 100), Umbrella sedge: 0
Umbrella sedge; [5]
  Plant response rating (0 to 100), Umbrella sedge: 60
Umbrella sedge; [6]
  Plant response rating Umbrella sedge: 80
pigweed; 62 g/ha, 0 to 100 scale
  Plant response rating Pigweed: 100
pigweed; Rate 1 g/ha
  Plant response rating (0 to 100), Pigweed: 90
pigweed; Rate 4 g/ha
  Plant response rating (0 to 100), Pigweed: 100
pigweed; Rate 16 g/ha
  Plant response rating (0 to 100), Pigweed: 100
Wild buckwheat; POSTEMERGENCE, Rate 10 g/ha
  Plant response rating, Wild buckwheat: 10
Wild buckwheat; POSTEMERGENCE, Rate 50 g/ha
  Plant response rating, Wild buckwheat: 10
Wild buckwheat; PREEMERGENCE, Rate 50 g/ha
  Plant response rating, Wild buckwheat: 8
cocklebur; POSTEMERGENCE, Rate 10 g/ha
  Plant response rating, Cocklebur: 10
cocklebur; POSTEMERGENCE, Rate 50 g/ha
  Plant response rating, Cocklebur: 1
cocklebur; PREEMERGENCE, Rate 10 g/ha
  Plant response rating, Cocklebur: 0
cocklebur; PREEMERGENCE, Rate 50 g/ha
  Plant response rating, Cocklebur: 2
Rice [1]; [3]
  Plant response rating (0 to 100), Rice Japonica: 20
Rice [1]; [4]
  Plant response rating (0 to 100), Rice Japonica: 25
Rice [1]; [5]
  Plant response rating (0 to 100), Rice Japonica: 35
Rice [1]; [6]
  Plant response rating Rice Japonica: 90
bedstraw; 62 g/ha, 0 to 100 scale
  Plant response rating, Bedstraw: 100
bedstraw; Rate 1 g/ha
  Plant response rating (0 to 100), Bedstraw: 30
bedstraw; Rate 4 g/ha
  Plant response rating (0 to 100), Bedstraw: 95
bedstraw; Rate 16 g/ha
  Plant response rating (0 to 100), Bedstraw: 100
Giant foxtail; 62 g/ha, 0 to 100 scale
  Plant response rating, Giant foxtail: 70
Giant foxtail; Rate 1 g/ha
  Plant response rating (0 to 100), Giant foxtail: 20
Giant foxtail; Rate 4 g/ha
  Plant response rating (0 to 100), Giant foxtail: 30
Giant foxtail; Rate 16 g/ha
  Plant response rating (0 to 100), Giant foxtail: 40
Duck salad; [3]
  Plant response rating (0 to 100), Duck salad: 0
Duck salad; [4]
  Plant response rating (0 to 100), Duck salad: 0
Duck salad; [5]
  Plant response rating (0 to 100), Duck salad: 0
Duck salad; [6]
  Plant response rating Duck salad: 40
cotton; 62 g/ha, 0 to 100 scale
  Plant response rating, Cotton: 100
cotton; Rate 1 g/ha
  Plant response rating (0 to 100), Cotton: 100
cotton; Rate 4 g/ha
  Plant response rating (0 to 100), Cotton: 100
cotton; Rate 16 g/ha
  Plant response rating (0 to 100), Cotton: 100
velvetleaf; 62 g/ha, 0 to 100 scale
  Plant response rating, Velvetleaf: 100
velvetleaf; Rate 1 g/ha
  Plant response rating (0 to 100), Velvetleaf: 100
velvetleaf; Rate 4 g/ha
  Plant response rating (0 to 100), Velvetleaf: 100
velvetleaf; Rate 16 g/ha
  Plant response rating (0 to 100), Velvetleaf: 100
Sugar beet; 62 g/ha, 0 to 100 scale
  Plant response rating, Sugar beet: 100
Sugar beet; Rate 4 g/ha
  Plant response rating (0 to 100), Sugar beet: 80
Sugar beet; Rate 16 g/ha
  Plant response rating (0 to 100), Sugar beet: 100
Rice [2]; POSTEMERGENCE, Rate 10 g/ha
  Plant response rating, Rice: 5
Rice [2]; POSTEMERGENCE, Rate 50 g/ha
  Plant response rating, Rice: 5
Rice [2]; PREEMERGENCE, Rate 50 g/ha
  Plant response rating, Rice: 2
soybean; POSTEMERGENCE, Rate 10 g/ha
  Plant response rating, Soybean: 8
soybean; POSTEMERGENCE, Rate 50 g/ha
  Plant response rating, Soybean: 10
soybean; PREEMERGENCE, Rate 50 g/ha
  Plant response rating, Soybean: 6
Purple nutsedge; POSTEMERGENCE
  Plant response rating, Nutsedge: 0
Purple nutsedge; PREEMERGENCE
  Plant response rating, Nutsedge: 0
chickweed; 62 g/ha, 0 to 100 scale
  Plant response rating, Chickweed: 100
chickweed; Rate 1 g/ha
  Plant response rating (0 to 100), Chickweed: 75
chickweed; Rate 4 g/ha
  Plant response rating (0 to 100), Chickweed: 75
chickweed; Rate 16 g/ha
  Plant response rating (0 to 100), Chickweed: 100
